Patent publication US11059795B2, “Androgen receptor modulators and methods for their use” (ESSA Pharma, Inc., priority 2018, dated 2021)

Legend:
androgen receptor (AR) = target: T1, androgen receptor (AR) (Homo sapiens, UniProt P10275, T878A); assay: Androgen-induced PSA (6.1 kb)-luciferase reporter assay in LNCaP cells; assay type: cell-based; settings: LNCaP cells transfected with PSA (6.1 kb)-luciferase reporter, R1881 1 nM, 24 h; read-out: PSA-Luc IC50 Range
T1 construct: LNCaP cells were transiently transfected with the PSA (6.1 kb)-luciferase reporter for 24 h; endogenous in cells; host or cells: LNCaP
T1 sequence (P10275 1-920 T878A): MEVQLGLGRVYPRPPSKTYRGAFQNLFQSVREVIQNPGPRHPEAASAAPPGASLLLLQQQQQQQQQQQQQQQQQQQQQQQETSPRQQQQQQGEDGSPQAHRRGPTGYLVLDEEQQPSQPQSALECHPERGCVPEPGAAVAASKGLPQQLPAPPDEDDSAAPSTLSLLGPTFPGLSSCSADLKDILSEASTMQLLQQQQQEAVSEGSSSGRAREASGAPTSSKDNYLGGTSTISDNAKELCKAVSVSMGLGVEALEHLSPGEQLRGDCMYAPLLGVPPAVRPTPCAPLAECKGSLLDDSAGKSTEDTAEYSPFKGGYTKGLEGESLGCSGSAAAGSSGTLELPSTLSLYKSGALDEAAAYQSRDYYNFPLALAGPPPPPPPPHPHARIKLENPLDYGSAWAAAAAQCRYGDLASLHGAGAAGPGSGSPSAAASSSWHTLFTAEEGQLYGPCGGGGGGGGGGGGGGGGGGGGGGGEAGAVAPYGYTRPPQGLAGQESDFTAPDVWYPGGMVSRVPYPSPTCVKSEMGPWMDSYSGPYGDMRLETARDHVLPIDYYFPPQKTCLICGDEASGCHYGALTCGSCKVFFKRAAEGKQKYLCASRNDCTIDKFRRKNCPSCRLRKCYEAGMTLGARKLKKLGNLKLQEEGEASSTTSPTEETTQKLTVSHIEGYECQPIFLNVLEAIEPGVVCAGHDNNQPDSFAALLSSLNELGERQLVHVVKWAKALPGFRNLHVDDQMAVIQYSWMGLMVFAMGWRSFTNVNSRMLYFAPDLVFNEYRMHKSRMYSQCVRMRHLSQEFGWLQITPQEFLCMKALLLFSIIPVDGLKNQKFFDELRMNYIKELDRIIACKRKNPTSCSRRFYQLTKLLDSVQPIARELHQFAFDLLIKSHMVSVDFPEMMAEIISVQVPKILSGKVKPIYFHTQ
Outline: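 LNCaP cells carrying a PSA (6.1 kb) promoter-luciferase reporter with AREs; androgen-induced firefly luciferase read from lysates for 10 s. RLU normalized to protein content; IC50 calculated from the normalized data.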

[1] = Microsomal stability assay, human liver microsomes; assay type: in vitro ADME; settings: pH 7.4, 1 μM compound, 0.5 mg/mL protein, 37° C., read-out: HLM +/− NADPH: Clint (μL/min/mg protein)
Outline: (§1)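 Compound at 1 μM was incubated at 37° C with 0.5 mg/mL liver microsomes and 1 mM NADPH and/or 1 mM UDPGA (with alamethicin) in 100 mM potassium phosphate pH 7.4, 3 mM MgCl2. Samples were taken at 0, 15, 30 and 60 min and measured by LC/MS/MS. t½ came from compound loss relative to 0 min, and Clint was scaled with 45 mg microsomal protein/g liver.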

[2] = Microsomal stability assay, mouse liver microsomes; assay type: in vitro ADME; settings: mouse, liver microsomes, pH 7.4, mouse liver microsomes, 1 μM compound, 0.5 mg/mL protein, 37° C.; read-out: MLM +30/− NADPH: Clint (μL/min/mg protein)
Outline: as §1

[3] = In vivo pharmacokinetics in plasma after oral gavage (PO) in male CD-1 mice; settings: plasma, single PO dose 5 mg/kg, male CD-1 mice; for bioavailability / AUC(0-t) / Cmax / Tmax / half-life: mouse; for bioavailability: oral availability; for half-life: read-out: t½ (converted)
Description: The purpose of this study is to determine the pharmacokinetics of the tested compounds in plasma, following oral gavage administration (PO) to male CD-1 mice.
Animal Husbandry: Animals were group housed during acclimation and the study. The animal room environment were controlled (target conditions: temperature 18 to 26° C., relative humidity 30 to 70%, 12 hours artificial light and 12 hours dark). Temperature and relative humidity were monitored daily. Animals were fasted at least 12 hours prior to the administration. All animals had access to Certified Rodent Diet ad libitum 4 hours post dosing.
Dose Formulation: prepared 85-100 uL of a stock solution of representative compounds of the disclosure in DMSO at 50 mM; 1.5% v/v of Tween 80 were added and mixed gently; 95.5% v/v saline was added gently to the organic phase. The solution was mixed slowly by reverse pipetting to get a clear solution.
Dose Administration: the dose formulations were administered via oral gavage per facility SOPs. The dose volume were determined by the animals' body weight collected on the morning of dosing day
Sample Collection: blood collection (about 0.05 mL per time point) was performed from saphenous vein of each animal into polypropylene tubes at each timepoints (0, 0.25, 0.5, 1, 2, 4, 8, 12, and 24 hr). All blood samples were transferred into pre-chilled tubes containing 2 μL of K2-EDTA (0.5M) and placed on wet ice until centrifugation. Each collected blood sample was in the wet-ice before centrifugation. Each collected blood was under centrifugation for 15 minutes at 4° C. and 3000 g for plasma collection. Plasma samples were stored in polypropylene tubes, quickly frozen over dry ice and kept at −70±10° C. until LC/MS/MS analysis.
Bioanalytical analysis: A LC-MS/MS method for the quantitative determination of tested compound in biological matrix were developed under non-GLP compliance. A calibration curve with at least 7 non-zero calibration standards were applied for the method including LLOQ.
Plasma concentration versus time data were analyzed by non-compartmental approaches using the Phoenix WinNonlin 6.3 software program. Cl, Vdss, C0, Cmax, Tmax, T^1/2, AUC(0-t), AUC(0-inf), MRT(0-t), MRT(0-inf), % F (oral availability) and graphs of plasma concentration versus time profile were reported.

[4] = Hepatocyte stability assay, mouse hepatocytes; assay type: in vitro ADME; settings: mouse, cryopreserved hepatocytes, 1 μM compound, 0.5 million cells/mL, 37° C., read-out: MH +/− NADPH: Clint (μL/min/million cells)
Outline: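 Cryopreserved rat, human or mouse hepatocytes at 0.5 million cells/mL in DMEM with 1 μM compound, 37° C, sampled at 0, 60, 120 and 180 min and quenched with acetonitrile/formic acid. Parent loss vs 0-min by LC/MS/MS gave t½, and Clint = 0.693/t½ × mL incubation/million cells.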

Compound	IC50 (androgen receptor (AR)) [nM]	microsomal CLint at 1 μM [1] [µL/min/mg]	microsomal CLint at 1 μM [2] [µL/min/mg]	bioavailability [3] [%]	AUC(0-t) [3] [ng·h/mL]	Cmax [3] [ng/mL]	Tmax [3] [h]	half-life [3] [h]	AUC/D [3] [kg·ng·h/mL/mg]	hepatocyte CLint at 1 μM [4] [µL/min/1e6 cells]
Cc1cc(C(C)(C)c2ccc(OCc3ocnc3S(C)(=O)=O)cc2)cc(C#N)c1OCCCl [Compound A29, 2-(2-chloroethoxy)-3-methyl-5-(2-(4-((4-(methylsulfonyl)oxazol-5-yl)methoxy)phenyl)propan-2-yl)benzonitrile]	< 500	12 to 48	12 to 48	60.6	5190	2010	0.5	2.5	1037.3	–
CC(Oc1ccc(C(C)(C)c2cc(Cl)c(OCCCl)c(Cl)c2)cc1)c1ocnc1S(C)(=O)=O (centres unmarked) [Compound A35, 5-(1-(4-(2-(3,5-Dichloro-4-(2-chloroethoxy)phenyl)propan-2-yl)phenoxy)ethyl)-4-(methylsulfonyl)oxazole]	500 to 2000	< 12	12 to 48	49.6	2420	819	0.5	4	483.0	–
CC(C)(c1ccc(OCc2ncc(S(C)(=O)=O)o2)cc1)c1cc(Cl)c(OCCCl)c(Cl)c1 [Compound A66]	500 to 2000	< 12	< 12	71.4	11900	1610	0.8	12	2385.4	–
Cn1c(COc2ccc(C(C)(C)c3cc(Cl)c(OCCCl)c(C#N)c3)cc2)ccc1S(C)(=O)=O [Compound A193]	500 to 2000	≥ 48	≥ 48	–	–	–	–	–	–	4 to 18
CC(C)(c1ccc(OCc2cccc(NS(C)(=O)=O)n2)cc1)c1cc(Cl)c(OCCCl)c(C#N)c1 [Compound A194]	500 to 2000	< 12	< 12	–	–	–	–	–	–	< 4
CC(C)(c1ccc(OCc2ccnc(NS(C)(=O)=O)c2)cc1)c1cc(Cl)c(OCCCl)c(C#N)c1 [Compound A195]	< 500	< 12	< 12	–	–	–	–	–	–	4 to 18
CC(C)(c1ccc(OCc2cc(NS(C)(=O)=O)ccn2)cc1)c1cc(Cl)c(OCCCl)c(C#N)c1 [Compound A196]	500 to 2000	12 to 48	< 12	–	–	–	–	–	–	< 4
CC(C)(c1ccc(OCc2cnc(NS(C)(=O)=O)cn2)cc1)c1cc(Cl)c(OCCCl)c(C#N)c1 [Compound A197]	500 to 2000	< 12	< 12	–	–	–	–	–	–	< 4
CC(C)(c1ccc(OCc2ccnc(N3CCCCS3(=O)=O)n2)cc1)c1cc(Cl)c(OCCCl)c(C#N)c1 [Compound A198]	< 500	< 12	12 to 48	–	–	–	–	–	–	4 to 18
CC(C)(c1ccc(OCc2ccnc(N3CCCS3(=O)=O)n2)cc1)c1cc(Cl)c(OCCCl)c(C#N)c1 [Compound A199]	< 500	< 12	≥ 48	–	–	–	–	–	–	4 to 18
CC(C)(c1ccc(OCc2ccnc(C#N)n2)cc1)c1cc(Cl)c(OCCCl)c(C#N)c1 [Compound A200]	500 to 2000	< 12	< 12	–	–	–	–	–	–	4 to 18
[2H]c1c([2H])c(C(C)(C)c2cc(Cl)c(OCCCl)c(C#N)c2)c([2H])c([2H])c1OCc1ccnc(NS(C)(=O)=O)n1 [Compound A201]	500 to 2000	< 12	< 12	–	–	–	–	–	–	< 4
CC(C)(c1ccc(OCc2nc(NS(C)(=O)=O)nc3c2CCC3)cc1)c1cc(Cl)c(OCCCl)c(C#N)c1 [Compound A202]	500 to 2000	< 12	≥ 48	–	–	–	–	–	–	≥ 18
CC(C)(c1ccc(OCc2cnc(NS(C)(=O)=O)nc2)cc1)c1cc(Cl)c(OCCCl)c(C#N)c1 [Compound A204]	< 500	< 12	< 12	–	–	–	–	–	–	< 4
CC(C)(c1ccc(OCc2coc(S(N)(=O)=O)c2)cc1)c1cc(Cl)c(OCCCl)c(C#N)c1 [Compound A207]	< 500	< 12	< 12	–	–	–	–	–	–	< 4
CC(C)(c1ccc(OCc2coc(S(C)(=O)=O)c2)cc1)c1cc(Cl)c(OCCCl)c(C#N)c1 [Compound A208]	< 500	< 12	< 12	–	–	–	–	–	–	< 4
CC(=O)NN1C(=O)N(c2ccc(C(C)(C)c3cc(Cl)c(OCCCl)c(Cl)c3)cc2)C(=O)C1(C)C [Compound B5]	500 to 2000	< 12	< 12	–	–	–	–	–	–	4 to 18
